Measured values as given in patent publication US20240400544A1, “N-(HYDROXYALKYL (HETERO)ARYL) TETRAHYDROFURAN CARBOXAMIDE ANALOGS AS MODULATORS OF SODIUM CHANNELS” (VERTEX PHARMACEUTICALS INCORPORATED, priority 2021, published 2024).

Biological target: human NaV 1.8 (Homo sapiens, UniProt Q9Y5Y9)
Experiment: E-VIPR Assay Detecting and Measuring NaV Inhibition Properties
Type: cell-based
Conditions: HEK cells expressing a truncated form of human NaV 1.8 with full channel activity; electrical stimulation, membrane potential FRET dyes; read-out: measured IC50 value in the E-VIPR Assay
Source text: E-VIPR Assay Detecting and Measuring NaV Inhibition Properties
Sodium ion channels are voltage-dependent proteins that can be activated by inducing membrane voltage changes by applying electric fields. The electrical stimulation instrument and methods of use, referred to as E-VIPR, are described in International Publication No. WO 2002/008748 A3 and C.-J. Huang et al. Characterization of voltage-gated sodium channel blockers by electrical stimulation and fluorescence detection of membrane potential, 24 Nature Biotech. 439-46 (2006), both of which are incorporated by reference in their entirety. The instrument comprises a microtiter plate handler, an optical system for exciting the coumarin dye while simultaneously recording the coumarin and oxonol emissions, a waveform generator, a current- or voltage-controlled amplifier, and parallel electrode pairs that are inserted into assay plate wells. Under integrated computer control, this instrument passes user-programmed electrical stimulus protocols to cells within the wells of the microtiter plate.
16-20 hours prior to running the assay on E-VIPR, HEK cells expressing a truncated form of human NaV 1.8 with full channel activity were seeded into microtiter 384-well plates, pre-coated with matrigel, at a density of 25,000 cells per well. 2.5-5% KIR2.1 Bacmam virus was added to the final cell suspension before seeding into cell plates. HEK cells were grown in Dulbecco's Modified Eagle's Medium (DMEM) supplemented with 10% FBS (Fetal Bovine Serum, qualified; Sigma #F4135), 1% NEAA (Non-Essential Amino Acids, Gibco #11140), 1% HEPES (Gibco #15630), 1% Pen-Strep (Penicillin-Streptomycin; Gibco #15140) and 5 μg/ml Blasticidin (Gibco #R210-01). Cells were expanded in vented cap cell culture flasks, with 90-95% humidity and 5% CO2.
2.5-5% KIR 2.1 Bacmam virus (produced in-house), prepared as described in Section 3.3 of J. A. Fornwald et al., Gene Expression in Mammalian Cells Using BacMam, a Modified Baculovirus System, 1350 Methods in Molecular Biology 95-116 (2016), the entire contents of which are incorporated by reference. The concentration used can be dependent on viral titer of each batch.
5 mM DiSBAC6(3), a voltage sensitive oxonol acceptor (CAS number 169211-44-3; 5-[3-(1,3-dihexylhexahydro-4,6-dioxo-2-thioxo-5-pyrimidinyl)-2-propen-1-ylidene]-1,3-dihexyldihydro-2-thioxo-4,6(1H,5H)-pyrimidinedione), in dry DMSO. The preparation of DiSBAC6(3) is analogous to that of DiSBAC4(3) as described in Voltage Sensing by Fluorescence Resonance Energy Transfer in Single Cells, Gonzalez, J. E. and Tsien, R. Y. (1995) Biophys. J. 69, 1272-1280.
5 mM CC2-DMPE, a commercially available membrane-bound coumarin phospholipid FRET donor (ThermoFisher Scientific catalog number K1017, CAS number 393782-57-5; tetradecanoic acid, 1,1′-[(1R)-1-[8-(6-chloro-7-hydroxy-2-oxo-2H-1-benzopyran-3-yl)-3-hydroxy-3-oxido-8-oxo-2,4-dioxa-7-aza-3-phosphaoct-1-yl]-1,2-ethanediyl] ester) was prepared in dry DMSO. See also, Improved indicators of cell membrane potential that use fluorescence resonance energy transfer, Gonzalez, J. E. and Tsien, R. Y. (1997) Chem. Biol. 4, 269-277.
Voltage Assay Background Suppression Compound (VABSC-1) is prepared in H2O (89-363 mM, range used to maintain solubility)
Human Serum (HS, Millipore #S1P1-01KL, or Sigma SLBR5469V and SLBR5470V as a 50%/50% mixture, for 25% assay final concentration)
• Sodium Chloride 160 mM (9.35 g/L), Potassium Chloride, 4.5 mM (0.335 g/L), Glucose • 10 mM (1.8 g/L), Magnesium Chloride (Anhydrous) 1 mM (0.095 g/L), Calcium • Chloride 2 mM (0.222 g/L), HEPES 10 mM (2.38 g/L) in water.
• Sodium Chloride 96 mM (5.61 g/L), Potassium Chloride 4.5 mM (0.335 g/L), • Tetramethylammonium (TMA)-Cl 64 mM (7.01 g/L), Glucose 10 mM (1.8 g/L), • Magnesium Chloride (Anhydrous) 1 mM (0.095 g/L), Calcium Chloride 2 mM (0.222 • g/L) HEPES 10 mM (2.38 g/L) in water. […]

Sequence of human NaV 1.8 (Q9Y5Y9 126-1722 limits assumed): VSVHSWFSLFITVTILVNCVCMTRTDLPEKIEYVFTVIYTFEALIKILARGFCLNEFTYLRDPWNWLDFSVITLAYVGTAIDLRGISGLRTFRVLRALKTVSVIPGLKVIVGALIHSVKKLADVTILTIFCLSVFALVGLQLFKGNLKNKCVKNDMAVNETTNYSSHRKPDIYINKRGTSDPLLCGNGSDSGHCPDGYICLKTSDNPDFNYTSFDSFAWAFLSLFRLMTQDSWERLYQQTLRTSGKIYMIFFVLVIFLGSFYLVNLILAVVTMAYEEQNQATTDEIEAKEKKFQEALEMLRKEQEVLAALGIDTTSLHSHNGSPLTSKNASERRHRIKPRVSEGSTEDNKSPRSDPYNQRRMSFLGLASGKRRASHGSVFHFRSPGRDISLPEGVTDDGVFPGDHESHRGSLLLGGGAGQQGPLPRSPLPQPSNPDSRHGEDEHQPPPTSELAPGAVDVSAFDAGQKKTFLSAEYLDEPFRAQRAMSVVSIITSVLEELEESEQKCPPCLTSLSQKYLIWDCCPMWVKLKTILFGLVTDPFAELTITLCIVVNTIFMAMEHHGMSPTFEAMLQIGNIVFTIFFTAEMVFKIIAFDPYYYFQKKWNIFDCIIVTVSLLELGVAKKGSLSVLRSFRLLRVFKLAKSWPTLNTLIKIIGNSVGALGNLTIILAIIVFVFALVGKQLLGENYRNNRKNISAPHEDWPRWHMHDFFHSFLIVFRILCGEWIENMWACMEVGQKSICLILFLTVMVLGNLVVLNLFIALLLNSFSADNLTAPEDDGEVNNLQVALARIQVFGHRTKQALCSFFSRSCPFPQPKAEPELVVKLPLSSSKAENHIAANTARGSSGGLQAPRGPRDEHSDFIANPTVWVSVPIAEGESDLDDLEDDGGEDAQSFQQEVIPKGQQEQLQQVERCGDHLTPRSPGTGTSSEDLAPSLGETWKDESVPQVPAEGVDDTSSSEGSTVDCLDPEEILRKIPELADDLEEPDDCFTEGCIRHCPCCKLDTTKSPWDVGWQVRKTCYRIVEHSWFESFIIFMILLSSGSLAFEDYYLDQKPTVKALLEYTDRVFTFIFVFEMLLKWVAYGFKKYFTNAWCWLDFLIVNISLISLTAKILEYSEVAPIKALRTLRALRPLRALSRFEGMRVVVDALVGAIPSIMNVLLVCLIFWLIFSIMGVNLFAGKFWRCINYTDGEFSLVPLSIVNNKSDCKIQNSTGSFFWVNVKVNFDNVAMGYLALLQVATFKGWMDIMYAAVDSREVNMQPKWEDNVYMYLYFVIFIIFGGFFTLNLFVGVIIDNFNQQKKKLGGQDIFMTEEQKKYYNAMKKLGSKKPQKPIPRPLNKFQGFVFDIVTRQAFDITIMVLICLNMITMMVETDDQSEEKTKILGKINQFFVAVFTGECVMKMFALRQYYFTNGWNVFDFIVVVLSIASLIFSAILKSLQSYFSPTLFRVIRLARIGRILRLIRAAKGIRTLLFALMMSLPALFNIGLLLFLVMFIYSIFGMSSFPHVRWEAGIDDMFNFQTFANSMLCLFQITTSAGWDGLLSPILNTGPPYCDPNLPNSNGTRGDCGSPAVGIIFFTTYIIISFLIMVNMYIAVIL

Row | SMILES | IC50
1 | COc1c([C@H]2[C@H](C(=O)Nc3cnc4c(c3)CCC4O)O[C@@](C)(C(F)(F)F)[C@H]2C)ccc(F)c1F (single isomer, unassigned) [Compound 3, rel-(2R*,3S*,4S*,5R*)-3-(3,4-difluoro-2-methoxyphenyl)-N-(7-hydroxy-6,7-dihydro-5H-cyclopenta[b]pyridin-3-yl)-4,5-dimethyl-5-(trifluoromethyl)tetrahydrofuran-2-carboxamide] | 100 to 1000 nM
2 | COc1c([C@H]2[C@H](C(=O)Nc3cnc4c(c3)CCC4O)O[C@@](C)(C(F)(F)F)[C@H]2C)ccc(F)c1F (single isomer, unassigned) [Compound 4, rel-(2R*,3S*,4S*,5R*)-3-(3,4-difluoro-2-methoxyphenyl)-N-(7-hydroxy-6,7-dihydro-5H-cyclopenta[b]pyridin-3-yl)-4,5-dimethyl-5-(trifluoromethyl)tetrahydrofuran-2-carboxamide] | 10 to 100 nM
3 | COc1c([C@H]2[C@H](C(=O)Nc3cnc4c(c3)OCC4O)O[C@@](C)(C(F)(F)F)[C@H]2C)ccc(F)c1F (single isomer, unassigned) [Compound 1, rel-(2R*,3S*,4S*,5R*)-3-(3,4-difluoro-2-methoxyphenyl)-N-(3-hydroxy-2,3-dihydrofuro[3,2-b]pyridin-6-yl)-4,5-dimethyl-5-(trifluoromethyl)tetrahydrofuran-2-carboxamide] | 10 to 100 nM
